{
  "source": "patent US11369575B2",
  "about": "“PPARα agonist compositions and methods of use” (The Board of Regents of the University of Oklahoma, priority 2019, dated 2022)",
  "origin": "cited, not measured here",
  "details": "free fenofibrate after IVT dosing",
  "data": [
    {"smiles": "CC(C)OC(=O)C(C)(C)Oc1ccc(C(=O)c2ccc(Cl)cc2)cc1", "note": "[fenofibrate]", "values": [
      {"measurement": "time in which active drug levels disappear", "result": "less than 1 week"}
    ]}
  ]
}
